Measurements from the SangsterLogP compilation.

Structure (SMILES) | logP
Cc1cc(N)c([N+](=O)[O-])cc1C | 2.07
O=[N+]([O-])c1ccc2nn[nH]c2c1 | 1.95
Nc1nc2ccccc2[nH]1 | 1.34
O=[N+]([O-])c1ccncc1 | 0.6
Nc1cccc2ncccc12 | 1.27
Nc1cccc2c(N)cccc12 | 0.89
Nc1cccc2cccc(N)c12 | 1.78
Nc1cc2ccccc2cc1N | 1.54
O=[N+]([O-])c1ccc2nc[nH]c2c1 | 1.5
Nc1ccc2[nH]ccc2c1 | 1.13
Nc1ccc2[nH]ncc2c1 | 0.65
Cc1ccc(N)c([N+](=O)[O-])c1 | 1.82
